Experimental data taken from ChEMBL document CHEMBL1127465, “Rational design, synthesis, and crystallographic analysis of a hydroxyethylene-based HIV-1 protease inhibitor containing a heterocyclic P1'--P2' amide bond isostere” (J Med Chem, 1994).

Molecular target: Human immunodeficiency virus type 1 protease (Human immunodeficiency virus 1, UniProt Q72874)
Test: Apparent inhibition constant against recombinant HIV-1 protease

`C=CC(C)(C)C(=O)c1cnc([C@H](Cc2ccccc2)C[C@H](O)[C@H](Cc2ccccc2)NC(=O)OC(C)(C)C)[nH]1` was tested. Which Ki did it give?
Its Ki is 270 nM.

With `CC(C)C(=O)c1cnc([C@H](Cc2ccccc2)C[C@H](O)[C@H](Cc2ccccc2)NC(=O)OC(C)(C)C)[nH]1` as the molecule, how does the Ki read?
The Ki was 83 nM.

How did the Ki turn out when `CC(C)C(O)c1cnc([C@H](Cc2ccccc2)C[C@H](O)[C@H](Cc2ccccc2)NC(=O)OC(C)(C)C)[nH]1` (stereo not given in full) was run?
Its Ki is 2700 nM.

How did the Ki turn out when `CC(C)[C@@H](NC(=O)[C@@H](Cc1ccccc1)NCC(O)C(=O)[C@H](Cc1ccccc1)NC(=O)[C@H](C)NC(=O)OCc1ccccc1)C(=O)O` (stereo not given in full) was run?
Its Ki is 0.7 nM.

`CC(C)(C)OC(=O)N[C@@H](Cc1ccccc1)C(=O)C(O)CN[C@@H](Cc1ccccc1)C(=O)NCC(N)=O` (stereo not given in full) was tested. Which Ki did it give?
The Ki was 120 nM.

Which Ki does the source give for `CCCC(=O)c1c[nH]c([C@H](Cc2ccccc2)C[C@H](O)[C@H](Cc2ccccc2)NC(=O)OC(C)(C)C)n1` here?
The Ki was 150 nM.

`CC(C)(C)OC(=O)N[C@@H](Cc1ccccc1)[C@@H](O)C[C@@H](Cc1ccccc1)c1nc(C=O)c[nH]1` was tested. Which Ki did it give?
Its Ki is 3500 nM.

For `CCC(=O)c1cnc([C@H](Cc2ccccc2)C[C@H](O)[C@H](Cc2ccccc2)NC(=O)OC(C)(C)C)[nH]1`, which Ki is on record?
The Ki was 92 nM.

Which Ki does the source give for `CC(O)c1cnc([C@H](Cc2ccccc2)C[C@H](O)[C@H](Cc2ccccc2)NC(=O)OC(C)(C)C)[nH]1` (stereo not given in full) here?
The Ki was 13300 nM.

`CC(=O)c1c[nH]c([C@H](Cc2ccccc2)C[C@H](O)[C@H](Cc2ccccc2)NC(=O)OC(C)(C)C)n1` was tested. Which Ki did it give?
The Ki was 370 nM.
